Measured values as given in patent US20240158446A1, “CYCLIC COMPOUND HAVING SELECTIVE INHIBITORY ACTION ON KRAS OVER HRAS AND NRAS” (CHUGAI SEIYAKU KABUSHIKI KAISHA, priority 2021, published 2024).
Read-outs that look alike come from different tables or passages of the source. Where a SMILES comes first, the peptide text is derived from it. Bridges are numbered along the chain shown (N, C = ends). [ ]: non-standard residue; d: D form. The star is where a group is joined. hPhe(3-Cl-4-CF3) = N[C@@H](CCc1ccc(C(F)(F)F)c(Cl)c1)C(=O)O; NPrPhe(4-CF3) = CCCN[C@@H](Cc1ccc(C(F)(F)F)cc1)C(=O)O; NMeGly(cPent) = CN[C@H](C(=O)O)C1CCCC1; NMeD = CN[C@@H](CC(=O)O)C(=O)O; NMeL = CN[C@@H](CC(C)C)C(=O)O; Morpholide = C1CN(*)CCO1; Aze = O=C(O)[C@@H]1CCN1; Ac4c = NC1(C(=O)O)CCC1; Sar = CNCC(=O)O

Legend:
[1] = tested on: human lung cancer strain NCI-H441;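 note: cell proliferation inhibition after four days measured by CellTiter-Glo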
[2] = target: GDP-bound NRAS wild-type protein (Homo sapiens, UniProt P01111); assay: Binding to NRAS by surface plasmon resonance (SPR), Single Cycle Kinetics; settings: SPR; for NRAS/KRAS (ratio of KD value for NRAS to KD value for KRAS): GDP-bound NRAS wild-type protein vs GDP-bound KRAS wild-type protein
Chain of GDP-bound NRAS wild-type protein (P01111 whole entry): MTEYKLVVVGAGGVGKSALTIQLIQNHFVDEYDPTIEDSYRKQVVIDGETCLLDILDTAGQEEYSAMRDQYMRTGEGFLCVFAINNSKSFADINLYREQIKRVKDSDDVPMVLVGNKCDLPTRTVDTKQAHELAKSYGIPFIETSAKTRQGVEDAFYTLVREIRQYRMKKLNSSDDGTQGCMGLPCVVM

[3] = target: GDP-bound KRAS wild-type protein (Homo sapiens, UniProt P01116); assay: Binding to KRAS by surface plasmon resonance (SPR), Single Cycle Kinetics
Chain of GDP-bound KRAS wild-type protein (P01116 whole entry): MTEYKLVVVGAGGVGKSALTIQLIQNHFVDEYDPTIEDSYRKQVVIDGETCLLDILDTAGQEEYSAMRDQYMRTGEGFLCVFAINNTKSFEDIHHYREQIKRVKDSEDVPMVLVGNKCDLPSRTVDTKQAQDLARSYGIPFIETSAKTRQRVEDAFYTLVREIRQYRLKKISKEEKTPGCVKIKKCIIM

[4] = target: GDP-bound HRAS wild-type protein (Homo sapiens, UniProt P01112); assay: Binding to HRAS by surface plasmon resonance (SPR), Single Cycle Kinetics; settings: SPR; for HRAS/KRAS (ratio of KD value for HRAS to KD value for KRAS): GDP-bound HRAS wild-type protein vs GDP-bound KRAS wild-type protein
Chain of GDP-bound HRAS wild-type protein (P01112 whole entry): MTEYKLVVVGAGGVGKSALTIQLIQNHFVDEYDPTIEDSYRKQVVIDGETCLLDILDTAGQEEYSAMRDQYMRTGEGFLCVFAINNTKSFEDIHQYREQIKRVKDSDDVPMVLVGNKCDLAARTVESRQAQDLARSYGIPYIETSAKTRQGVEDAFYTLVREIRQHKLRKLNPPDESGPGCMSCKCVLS

[5] = SPR, Single Cycle Kinetics, GDP-bound KRAS wild-type protein, read-out: KRAS KD

IC50 [1]	Kd [3, 5]	Kd ([3]; SPR Single Cycle Kinetics, GDP-bound KRAS wild-type protein, 1:1 binding model, read-out: KRAS KD)	IC50 ([1]; read-out: NCI-H441 cell proliferation inhibitory activity, 50% proliferation inhibitory concentration (IC50 value), NCI-H441, four days, CellTiter-Glo)	Kd ([3]; SPR, Single Cycle Kinetics, 1:1 binding model, read-out: KD value with respect to GDP-bound KRAS wild-type protein)	SMILES	NRAS/KRAS (ratio of KD value for NRAS to KD value for KRAS) [2]	HRAS/KRAS (ratio of KD value for HRAS to KD value for KRAS) [4]	ratio of the KD value with respect to GDP-bound NRAS wild-type protein to the KD value with respect to KRAS ([2]; KD(NRAS)/KD(KRAS))	ratio of the KD value with respect to GDP-bound HRAS wild-type protein to the KD value with respect to KRAS ([4]; KD(HRAS)/KD(KRAS))
93.3 nM	0.59 nM	–	–	–	CCO[C@@H]1C[C@H]2C(=O)NC3(CCC3)C(=O)N(C)[C@@H](C3CCCC3)C(=O)N(C)[C@H](C(=O)N3CCOCC3)CC(=O)N(C)[C@@H](Cc3cccs3)C(=O)N[C@@H]([C@@H](C)CC)C(=O)N(C)CC(=O)N(C)[C@H]3CCCCCN(C3=O)[C@@H](Cc3ccc(C(F)(F)F)cc3)C(=O)N(C)CC(=O)N[C@@H](CCc3cc(F)c(C(F)(F)F)c(F)c3)C(=O)N2C1 [PP1163]	B (a compound having 3 or more and less than 10 is denoted as B)	B (a compound having 3 or more and less than 10 is denoted as B)	–	–
7.6 nM	–	0.11 nM	–	–	CCCN1C(=O)[C@@H]2CCN2C(=O)CN(C)C(=O)[C@H]([C@@H](C)CC)NC(=O)[C@H](CC(C)C)N(C)C(=O)C[C@@H](C(=O)N2CCOCC2)N(C)C(=O)[C@H](C2CCCC2)N(C)C(=O)C2(CCC2)NC(=O)[C@@H]2CCCN2C(=O)[C@H](CCc2ccc(C(F)(F)F)c(Cl)c2)NC(=O)CN(C)C(=O)[C@@H]1Cc1ccc(C(F)(F)F)cc1 [PP0407] ([NMeL]I[Sar][Aze][NPrPhe(4-CF3)][Sar][hPhe(3-Cl-4-CF3)]P[Ac4c][NMeGly(cPent)][NMeD]-Morpholide; lactam N-11)	C (A compound having a KD ratio of 0.1 or more and less than 3 is denoted as C)	B (a compound having 3 or more and less than 10 is denoted as B)	–	–
–	0.24 nM	–	4.7 nM	0.24 nM	CCC[C@H]1C(=O)N[C@@H]([C@@H](C)CC)C(=O)N(C2CC2)CC(=O)N(C)[C@H]2C/C=C\CCN(C2=O)[C@@H](Cc2ccc(C)cc2)C(=O)N(C)CC(=O)N[C@@H](CCc2ccc(C(F)(F)F)c(OC)c2)C(=O)N2C[C@H](OCC)C[C@H]2C(=O)N(C)C2(CCC2)C(=O)N(C)[C@@H](C2CCCC2)C(=O)N(C)[C@H](C(=O)N2CCCC2)CC(=O)N1C [PP3098, (2S,8S,12R,14S,20S,23S,27S,30S,36S,38Z)-20-cyclopentyl-32-cyclopropyl-12-ethoxy-8-[2-[3-methoxy-4-(trifluoromethyl)phenyl]ethyl]-4,16,19,22,26,35-hexamethyl-30-[(1S)-1-methylpropyl]-27-propyl-2-(p-tolylmethyl)-23-(pyrrolidine-1-carbonyl)spiro[1,4,7,10,16,19,22,26,29,32,35-undecazatricyclo[34.5.1.0^10,14]dotetracont-38-ene-17,1′-cyclobutane]-3,6,9,15,18,21,25,28,31,34,42-undecone]	A (a compound having 10 or more and less than 20 is denoted as A)	A (a compound having 10 or more and less than 20 is denoted as A)	A (a compound having 10 or more and less than 20 is denoted as A)	A (a compound having 10 or more and less than 20 is denoted as A)
